The target of the experiment is T1, human SGLT2 (Homo sapiens, UniProt P31639).
T1 construct: expressed in transfected cells
T1 sequence (P31639 1-672): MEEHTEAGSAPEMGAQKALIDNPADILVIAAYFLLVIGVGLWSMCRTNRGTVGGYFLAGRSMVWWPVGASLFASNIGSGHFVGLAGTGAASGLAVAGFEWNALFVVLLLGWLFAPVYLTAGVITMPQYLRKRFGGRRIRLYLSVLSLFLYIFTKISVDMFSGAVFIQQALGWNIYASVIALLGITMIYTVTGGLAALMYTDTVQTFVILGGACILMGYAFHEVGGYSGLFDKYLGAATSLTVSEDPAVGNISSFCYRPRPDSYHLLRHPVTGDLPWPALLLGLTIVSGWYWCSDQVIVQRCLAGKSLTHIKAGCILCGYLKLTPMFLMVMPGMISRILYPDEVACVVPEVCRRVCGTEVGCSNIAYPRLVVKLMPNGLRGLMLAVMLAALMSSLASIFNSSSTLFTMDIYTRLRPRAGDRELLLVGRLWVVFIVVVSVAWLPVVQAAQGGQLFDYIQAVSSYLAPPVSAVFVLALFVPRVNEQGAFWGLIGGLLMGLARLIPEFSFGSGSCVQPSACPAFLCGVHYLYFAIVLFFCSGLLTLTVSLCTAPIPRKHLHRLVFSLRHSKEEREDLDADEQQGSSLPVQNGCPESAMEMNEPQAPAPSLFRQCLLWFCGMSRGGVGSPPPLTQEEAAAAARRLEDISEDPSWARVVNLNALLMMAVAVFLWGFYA
Kind of experiment: Inhibition of methyl-α-D-glucopyranoside uptake in CHO cells stably expressing human SGLT2. Conditions: methyl-α-D-(U-14C)glucopyranoside uptake, 37° C., 45 minutes, read-out: ICH value for the inhibition of SGLT2. The format is cell-based. Here is the method:
Assay for Evaluating Inhibition of Activity of Human Na^+-Glucose Cotransporter (SGLT1 and SGLT2)
Human SGLT2 cDNA was amplified by PCR with a cDNA library derived from human kidney (Clontech) as a template, synthetic DNA primers, and KOD+ DNA Polymerase. The amplified cDNA was inserted into pcRII-Topo vector by using a Topo TA Cloning Dual Promoter kit. E. coli competent cells (TPO10) were transformed with the plasmid vector, and then cultured in LB medium containing ampicillin (50 mg/L) to grow ampicillin-resistant clones. The plasmid vector containing human SGLT2 cDNA was purified from the clone in a standard manner. Human SGLT2 cDNA added restriction enzyme recognition sites (Xho I at 5′-end, Hind III at 3′-end) was amplified by PCR with the plasmid vector as a template, synthetic DNA primers containing an additional restriction enzyme recognition site, and KOD+ DNA Polymerase. This amplified cDNA was digested with Xho I and Hind III, and the resulting fragment was ligated into expression vector pcDNA3.1(−) digested with Xho I and Hind III by using a Rapid DNA Ligation kit. E. coli competent cells (DH5α) were transformed with the ligated expression vector and grown in ampicillin-containing LB medium. Human SGLT2 expression vector was purified from the ampicillin-resistant clone in a standard manner. […]

Our source for the IC50 values is patent US20100093744A1, “THIOGLUCOSE SPIROKETAL DERIVATIVE AND USE THEREOF AS THERAPEUTIC AGENT FOR DIABETES” (Chugai Seiyaku Kabushiki Kaisha, priority 2007, published 2010).

Structures are written as SMILES.

For the compound `CCc1ccc(Cc2ccc3c(c2)[C@]2(OC3)S[C@H](CO)[C@@H](O)[C@H](O)[C@H]2O)cc1` [Example 1, (1S,3′R,4′S,5′S,6′R)-6-[(4-ethylphenyl)methyl]-3′,4′,5′,6′-tetrahydro-6′-(hydroxymethyl)-spiro[isobenzofuran-1(3H),2′-[2H]thiopyran]-3′,4′,5′-triol], the IC50 amounted to 12 nM.
